Data from patent US10004701B2, “Methods and compositions for treating infection” (UNIVERSITY OF ROCHESTER, priority 2012, dated 2018).
Counter-ions that a name gives are not always drawn. Like-named read-outs stand apart in the source and are kept apart here.

What was measured:
Assay in all cases: AK assay 384-well format, Prestwick library screening
[1] = tested on: E. faecium; type: cell-based, Enterococcus faecium; settings: Enterococcus faecium, 3 h, 50 μM final drug concentration
[2] = tested on: S. aureus strain USA300-0114; type: cell-based, Staphylococcus aureus; settings: Staphylococcus aureus, USA300, 3 h, 50 μM final drug concentration
[3] = tested on: K. pneumoniae; type: cell-based, Klebsiella pneumoniae; settings: Klebsiella pneumoniae, 3 h, 50 μM final drug concentration
[4] = tested on: A. baumannii strain 98-37-09; type: cell-based, Acinetobacter baumannii; settings: Acinetobacter baumannii, 983709, 3 h, 50 μM final drug concentration
[5] = tested on: P. aeruginosa; type: cell-based, Pseudomonas aeruginosa; settings: Pseudomonas aeruginosa, 3 h, 50 μM final drug concentration
[6] = tested on: E. cloacae; type: cell-based, Enterobacter cloacae; settings: Enterobacter cloacae, 3 h, 50 μM final drug concentration
[7] = tested on: E. coli; type: cell-based, Escherichia coli; settings: Escherichia coli, 3 h, 50 μM final drug concentration
[8] = cutoff for positive-scoring molecules 3-fold increase, read-out: AK-based Prestwick Library Screening Results, E. faecium (fold increase in extracellular AK activity)
[9] = cutoff for positive-scoring molecules 3-fold increase, read-out: AK-based Prestwick Library Screening Results, S. aureus (fold increase in extracellular AK activity)
[10] = cutoff for positive-scoring molecules 3-fold increase, read-out: AK-based Prestwick Library Screening Results, K. pneumoniae (fold increase in extracellular AK activity)
[11] = cutoff for positive-scoring molecules 3-fold increase, read-out: AK-based Prestwick Library Screening Results, A. baumannii (fold increase in extracellular AK activity)
[12] = cutoff for positive-scoring molecules 3-fold increase, read-out: AK-based Prestwick Library Screening Results, P. aeruginosa (fold increase in extracellular AK activity)
[13] = cutoff for positive-scoring molecules 3-fold increase, read-out: AK-based Prestwick Library Screening Results, E. cloacae (fold increase in extracellular AK activity)
[14] = cutoff for positive-scoring molecules 3-fold increase, read-out: AK-based Prestwick Library Screening Results, E. coli (fold increase in extracellular AK activity)
[15] = planktonic E. faecium, cutoff for positive-scoring molecules 3-fold increase, read-out: AK-based Prestwick Library Screening Results, E. faecium (increase in extracellular AK activity)
[16] = planktonic S. aureus, cutoff for positive-scoring molecules 3-fold increase, read-out: AK-based Prestwick Library Screening Results, S. aureus (increase in extracellular AK activity)
[17] = planktonic K. pneumoniae, cutoff for positive-scoring molecules 3-fold increase, read-out: AK-based Prestwick Library Screening Results, K. pneumoniae (increase in extracellular AK activity)
[18] = planktonic A. baumannii, cutoff for positive-scoring molecules 3-fold increase, read-out: AK-based Prestwick Library Screening Results, A. baumannii (increase in extracellular AK activity)
[19] = planktonic P. aeruginosa, cutoff for positive-scoring molecules 3-fold increase, read-out: AK-based Prestwick Library Screening Results, P. aeruginosa (increase in extracellular AK activity)
[20] = planktonic E. cloacae, cutoff for positive-scoring molecules 3-fold increase, read-out: AK-based Prestwick Library Screening Results, E. cloacae (increase in extracellular AK activity)
[21] = planktonic E. coli, cutoff for positive-scoring molecules 3-fold increase, read-out: AK-based Prestwick Library Screening Results, E. coli (increase in extracellular AK activity)

For `CC(C)NCC(O)COc1ccc(COCCOC(C)C)cc1` (stereo not drawn) [Bisoprolol fumarate], the fold induction at 50 µM ([1]; planktonic E. faecium, 384-well, cutoff for positive-scoring molecules 3-fold increase, read-out: AK-based Prestwick Library Screening Results: E. faecium (increase in extracellular AK activity)) was 0.9, the fold induction at 50 µM ([2]; planktonic S. aureus, 384-well, cutoff for positive-scoring molecules 3-fold increase, read-out: AK-based Prestwick Library Screening Results: S. aureus (increase in extracellular AK activity)) was 0.6 and the fold induction at 50 µM ([3]; planktonic K. pneumoniae, 384-well, cutoff for positive-scoring molecules 3-fold increase, read-out: AK-based Prestwick Library Screening Results: K. pneumoniae (increase in extracellular AK activity)) was 0.5. The fold induction at 50 µM ([4]; planktonic A. baumannii, 384-well, cutoff for positive-scoring molecules 3-fold increase, read-out: AK-based Prestwick Library Screening Results: A. baumannii (increase in extracellular AK activity)) was 0.5, the fold induction at 50 µM ([5]; planktonic P. aeruginosa, 384-well, cutoff for positive-scoring molecules 3-fold increase, read-out: AK-based Prestwick Library Screening Results: P. aeruginosa (increase in extracellular AK activity)) was 0.5 and the fold induction at 50 µM ([6]; planktonic E. cloacae, 384-well, cutoff for positive-scoring molecules 3-fold increase, read-out: AK-based Prestwick Library Screening Results: E. cloacae (increase in extracellular AK activity)) was 0.6. For the same molecule, the fold induction at 50 µM ([7]; planktonic E. coli, 384-well, cutoff for positive-scoring molecules 3-fold increase, read-out: AK-based Prestwick Library Screening Results: E. coli (increase in extracellular AK activity)) was 0.5.
In the case of `COc1cc2c(cc1O)C[C@H]1c3c(cc(O)c(OC)c3-2)CCN1C` [Boldine], the fold induction at 50 µM ([1]; planktonic E. faecium, […], read-out: AK-based Prestwick Library Screening Results, E. faecium (increase in extracellular AK activity)) is reported as 0.9, the fold induction at 50 µM ([2]; planktonic S. aureus, […], read-out: AK-based Prestwick Library Screening Results, S. aureus (increase in extracellular AK activity)) is reported as 0.8 and the fold induction at 50 µM ([3]; planktonic K. pneumoniae, […], read-out: AK-based Prestwick Library Screening Results, K. pneumoniae (increase in extracellular AK activity)) is reported as 0.7. It also gave a fold induction at 50 µM ([4]; planktonic A. baumannii, […], read-out: AK-based Prestwick Library Screening Results, A. baumannii (increase in extracellular AK activity)) of 0.8, a fold induction at 50 µM ([5]; planktonic P. aeruginosa, […], read-out: AK-based Prestwick Library Screening Results, P. aeruginosa (increase in extracellular AK activity)) of 0.9 and a fold induction at 50 µM ([6]; planktonic E. cloacae, […], read-out: AK-based Prestwick Library Screening Results, E. cloacae (increase in extracellular AK activity)) of 1.2. The fold induction at 50 µM ([7]; planktonic E. coli, […], read-out: AK-based Prestwick Library Screening Results, E. coli (increase in extracellular AK activity)) was 0.9.
For `CC[N+](C)(C)Cc1ccccc1Br` [Bretylium tosylate], the fold induction at 50 µM [1, 8] was 1, the fold induction at 50 µM [2, 9] was 1.3 and the fold induction at 50 µM [3, 10] was 1.1. The fold induction at 50 µM [4, 11] was 1.3, the fold induction at 50 µM [5, 12] was 1.2 and the fold induction at 50 µM [6, 13] was 1.6. It also gave a fold induction at 50 µM [7, 14] of 1.3.
Work on `CCN[C@H]1CN(CCCOC)S(=O)(=O)c2sc(S(N)(=O)=O)cc21` [Brinzolamide] yielded a fold induction at 50 µM [1, 15] of 1.4, a fold induction at 50 µM [2, 16] of 1 and a fold induction at 50 µM [3, 17] of 0.9. It also gave a fold induction at 50 µM [4, 18] of 1.1, a fold induction at 50 µM [5, 19] of 1.1 and a fold induction at 50 µM [6, 20] of 1.5. The fold induction at 50 µM [7, 21] was 1.1.
In the case of `CCN(CC)CCNC(=O)c1cc(Br)c(N)cc1OC` [Bromopride], the fold induction at 50 µM [1, 8] is reported as 0.9, the fold induction at 50 µM [2, 9] is reported as 1.3 and the fold induction at 50 µM [3, 10] is reported as 1. For the same molecule, the fold induction at 50 µM [4, 11] was 1.3, the fold induction at 50 µM [5, 12] was 1.1 and the fold induction at 50 µM [6, 13] was 1.3. It also gave a fold induction at 50 µM [7, 14] of 1.3.
`O=C(CCCN1CCC(O)(c2ccc(Br)cc2)CC1)c1ccc(F)cc1` [Bromperidol] was tested, and the fold induction at 50 µM [1, 15] was 0.9, the fold induction at 50 µM [2, 16] was 0.7 and the fold induction at 50 µM [3, 17] was 0.7. The fold induction at 50 µM [4, 18] was 1, the fold induction at 50 µM [5, 19] was 1.1 and the fold induction at 50 µM [6, 20] was 1.1. It also gave a fold induction at 50 µM [7, 21] of 0.8.
In the case of `CN(C)CCC(c1ccc(Br)cc1)c1ccccn1` (stereo not drawn) [Brompheniramine maleate], the fold induction at 50 µM ([1]; planktonic, cutoff for positive 3-fold increase, read-out: AK-based Prestwick Library Screening Results, E. faecium (fold increase in extracellular AK activity)) is reported as 1, the fold induction at 50 µM ([2]; planktonic, cutoff for positive 3-fold increase, read-out: AK-based Prestwick Library Screening Results, S. aureus (fold increase in extracellular AK activity)) is reported as 1.1 and the fold induction at 50 µM ([3]; planktonic, cutoff for positive 3-fold increase, read-out: AK-based Prestwick Library Screening Results, K. pneumoniae (fold increase in extracellular AK activity)) is reported as 1.1. For the same molecule, the fold induction at 50 µM ([4]; planktonic, cutoff for positive 3-fold increase, read-out: AK-based Prestwick Library Screening Results, A. baumannii (fold increase in extracellular AK activity)) was 1.2, the fold induction at 50 µM ([5]; planktonic, cutoff for positive 3-fold increase, read-out: AK-based Prestwick Library Screening Results, P. aeruginosa (fold increase in extracellular AK activity)) was 1.1 and the fold induction at 50 µM ([6]; planktonic, cutoff for positive 3-fold increase, read-out: AK-based Prestwick Library Screening Results, E. cloacae (fold increase in extracellular AK activity)) was 2. The fold induction at 50 µM ([7]; planktonic, cutoff for positive 3-fold increase, read-out: AK-based Prestwick Library Screening Results, E. coli (fold increase in extracellular AK activity)) was 1.4.
`CCCC(=O)Nc1ncnc2c1ncn2[C@@H]1O[C@@H]2COP(=O)(O)O[C@H]2[C@H]1OC(=O)CCC` [Bucladesine sodium salt] gave a fold induction at 50 µM ([1]; planktonic, cutoff for positive-scoring molecules 3-fold increase, read-out: AK-based Prestwick Library Screening Results, E. faecium (fold increase in extracellular AK activity)) of 0.9, a fold induction at 50 µM ([2]; planktonic, cutoff for positive-scoring molecules 3-fold increase, read-out: AK-based Prestwick Library Screening Results, S. aureus (fold increase in extracellular AK activity)) of 0.7 and a fold induction at 50 µM ([3]; planktonic, cutoff for positive-scoring molecules 3-fold increase, read-out: AK-based Prestwick Library Screening Results, K. pneumoniae (fold increase in extracellular AK activity)) of 0.6. For the same molecule, the fold induction at 50 µM ([4]; planktonic, cutoff for positive-scoring molecules 3-fold increase, read-out: AK-based Prestwick Library Screening Results, A. baumannii (fold increase in extracellular AK activity)) was 0.8, the fold induction at 50 µM ([5]; planktonic, cutoff for positive-scoring molecules 3-fold increase, read-out: AK-based Prestwick Library Screening Results, P. aeruginosa (fold increase in extracellular AK activity)) was 0.8 and the fold induction at 50 µM ([6]; planktonic, cutoff for positive-scoring molecules 3-fold increase, read-out: AK-based Prestwick Library Screening Results, E. cloacae (fold increase in extracellular AK activity)) was 0.9. For the same molecule, the fold induction at 50 µM ([7]; planktonic, cutoff for positive-scoring molecules 3-fold increase, read-out: AK-based Prestwick Library Screening Results, E. coli (fold increase in extracellular AK activity)) was 0.7.
In the case of `CCCC1O[C@@H]2C[C@H]3[C@@H]4CCC5=CC(=O)C=C[C@]5(C)[C@H]4[C@@H](O)C[C@]3(C)[C@]2(C(=O)CO)O1` (stereo partly drawn) [Budesonide], the fold induction at 50 µM [1, 15] is reported as 0.9, the fold induction at 50 µM [2, 16] is reported as 0.6 and the fold induction at 50 µM [3, 17] is reported as 0.7. For the same molecule, the fold induction at 50 µM [4, 18] was 0.9, the fold induction at 50 µM [5, 19] was 0.9 and the fold induction at 50 µM [6, 20] was 1.4. The fold induction at 50 µM [7, 21] was 0.9.
